Laboratory results reported in patent publication US20080108573A1, “Compositions And Methods For Treatment Of Cardiovascular Disease” (priority 2004, published 2008).
Entries after “also recorded” stand apart in the source; their conditions may differ.

Key:
[1] = tested on: WKY rat fed a high salt diet; WKY rat fed a high salt diet and given L-NAME; test: Effect of VIP infusion on fibrosis in animal models of fibrosis (Example 3); format: in vivo; details: VIP 5 pmol/kg/min, 4 weeks via Alzet minipump; WKY high salt diet and high salt diet plus L-NAME (FIGS. 2 and 3)
Procedure: Three animal models of myocardial fibrosis were used (animals obtained from Australian Animal Resources, Perth, Western Australia, Australia) • i) WKY rat fed a high salt diet • ii) WKY rat fed a high salt diet and given L-NAME (ω-monomethyl-nitro-L-arginine, Sigma Chemical Co.) 10 mg/kg/day in the drinking water • iii) WKY rats with diabetes induced by streptozotocin injection 60 mg/kg
In each model the rats were randomised to VIP (H-[…]NH2, obtained from Auspep, Australia) or vehicle control (Haemaccel, Aventis) infusion for 4 weeks via Alzet minipump (n=6-8 each experimental group). The dose of VIP was 5 pmol/kg/min.
In models i) and ii) 14 week old WKY rats were commenced on high salt diet or high salt diet plus L-NAME. […] Myocardial VIP and myocardial fibrosis were quantitated. […]
Myocardial VIP concentrations and myocardial fibrosis were quantitiated.
(§1) VIP was measured by radioimmunoassay in known manner (see Davis R. E., Shelley S., Macdonald G. J. & Duggan K. A. (1992) The effects of a high sodium diet on the metabolism and secretion of vasoactive intestinal peptide in the rabbit. J. Physiol. 451:17-23. Duggan K. A., Ye V. Z. C., Jones D. M. Davis R. E. & Macdonald G. J. (1995) Effects of Endopeptidase 24.11 blockade on plasma and tissue concentrations of vasoactive intestinal peptide Clin. Sci. 89:267-271). […]

[2] = tested on: isolated trabeculae of human hearts; details: human hearts of previously healthy individuals; cited from earlier work
[3] = tested on: WKY rats on high salt diet or high salt diet plus L-NAME; test: Myocardial VIP content after four week VIP infusion (Example 4); format: in vivo, rat; details: four week intravenous infusion of VIP vs vehicle; WKY high salt diet, or high salt diet and L-NAME (FIGS. 7A and 7B)
Procedure: FIG. 7: A—Myocardial VIP concentrations in WKY rats on a high salt diet after a four week intravenous infusion of VIP or vehicle control. B—Myocardial VIP concentrations in WKY rats on a high salt diet and L-NAME (10 mg/kg) in the drinking water after a four week intravenous infusion of VIP or vehicle control.
(§2) VIP was measured by radioimmunoassay in known manner (see Davis R. E., Shelley S., Macdonald G. J. & Duggan K. A. (1992) The effects of a high sodium diet on the metabolism and secretion of vasoactive intestinal peptide in the rabbit. J. Physiol. 451:17-23. Duggan K. A., Ye V. Z. C., Jones D. M. Davis R. E. & Macdonald G. J. (1995) Effects of Endopeptidase 24.11 blockade on plasma and tissue concentrations of vasoactive intestinal peptide Clin. Sci. 89:267-271). The degree of myocardial fibrosis was quantitated by two methods in known manner (refer Ye V Z C, Hodge G, Yong J L C & Duggan K A (2002) Early myocardial fibrosis is associated with depletion of vasoactive intestinal peptide in the heart Exp. Physiol 87:539-546 Ye V Z C, Hodge G, Yong J L C & Duggan K A (2003) Myocardial VIP and myocardial fibrosis induced by nitric oxide synthase inhibition in the rat Acta Physiol. Scand. 179:353-360. Ye V Z C, Hodge G, Yong J L C & Duggan K A (2004) Vasopeptidase inhibition reverses myocardial VIP depletion and decreases myocardial fibrosis in salt sensitive hypertension Europ. […]

[4] = tested on: WKY rats on low, intermediate, high salt diet or high salt diet plus L-NAME; test: Acute VIP infusion: uptake of VIP by the myocardium (Examples 1 and 2); format: in vivo; details: VIP 10 pmol/kg/min for one hour, rat models with increasing degree of fibrosis
Procedure: In preliminary studies a series of acute infusion experiments have been conducted in animal models.
Fourteen week old WKY rats were randomised to low salt diet (0.008%), intermediate salt diet (2.2%), high salt diet (4.4%) or high salt diet plus L-NAME (10 mg/kg/day) in the drinking water for 4 weeks (n=16 rats per group). On the day of the experiment the rats were anaesthetised and venous and arterial cannulae inserted. After a one hour rest equilibration period the rats were randomised to vehicle control (Haemaccell, Aventis) or VIP (10 pmol/kg/min) infusion for one hour at an infusion rate of 0.017 ml/min. The hearts were then harvested, myocardial VIP concentrations were measured and myocardial fibrosis quantitated.
The difference between the mean myocardial VIP concentrations after VIP or control infusion is a measure of VIP uptake by the heart.
as §1

[5] = tested on: WKY rats on high salt diet, high salt diet plus L-NAME, or with streptozotocin induced diabetes; test: Regression of existing myocardial fibrosis after VIP infusion (Example 4); format: in vivo, rat; details: VIP 5 pmol/kg/min, 4 weeks, three models: high salt, streptozotocin diabetes (FIGS. 4 to 6)
Procedure: as §2, with “Europ. J. Pharmacol. 485:235-242).” for “Europ.”

[6] = tested on: SHR and WKY rats on low/high salt diet, L-NAME plus high salt diet, or streptozotocin induced diabetes; test: Preliminary four-week VIP infusion in rat models of myocardial fibrosis (Example 1); format: in vivo; details: VIP 7.2 nmol/kg/day via Alzet mini pump, four weeks, vs vehicle
Text: Further preliminary experiments have been conducted on a number of animal models, which encompass a range of fibrous tissue replacement, varying from mild to moderate to severe. The experiments on the animal models encompassed a variety of aetiologies (alone and in combination) and a range of levels of induced fibrosis. For these experiments two types of rats were used, spontaneously hypertensive rats (SHR) and normotensive control Wistar-Kyoto rats (WKY). The WKY rats were given: 1) low salt diet, 2) high salt diet, or 3) L-NAME (ω-monomethyl-nitro-L-arginine; 10 mg/kg/day) plus high salt diet. The SHR rats were given low or high salt diets. The effect of VIP infusion in diabetic heart disease was also studied in the WKY rate with streptozotocin induced diabetes.
In each treatment group, rats were randomised to VIP or vehicle infusion (n=24 in each group) for four weeks. VIP was administered via Alzet mini pump at a rate of 7.2 nmol/kg/day.
After four weeks, the rats were anaesthetised and the hearts were harvested. Myocardial VIP concentrations and myocardial fibrosis were quantitated.

isolated rat heart = isolated rat heart perfused with VIP, ischaemia then reperfusion; cited from earlier work

## CC[C@H](C)[C@H](NC(=O)[C@H](CO)NC(=O)[C@H](CC(N)=O)NC(=O)[C@H](CC(C)C)NC(=O)[C@H](Cc1ccc(O)cc1)NC(=O)[C@H](CCCCN)NC(=O)[C@H](CCCCN)NC(=O)[C@@H](NC(=O)[C@H](C)NC(=O)[C@H](CCSC)NC(=O)[C@H](CCC(N)=O)NC(=O)[C@H](CCCCN)NC(=O)[C@H](CCCNC(=N)N)NC(=O)[C@H](CC(C)C)NC(=O)[C@H](CCCNC(=N)N)NC(=O)[C@@H](NC(=O)[C@H](Cc1ccc(O)cc1)NC(=O)[C@H](CC(N)=O)NC(=O)[C@H](CC(=O)O)NC(=O)[C@@H](NC(=O)[C@H](Cc1ccccc1)NC(=O)[C@@H](NC(=O)[C@H](C)NC(=O)[C@H](CC(=O)O)NC(=O)[C@H](CO)NC(=O)[C@@H](N)Cc1c[nH]cn1)C(C)C)[C@@H](C)O)[C@@H](C)O)C(C)C)C(=O)N[C@@H](CC(C)C)C(=O)N[C@@H](CC(N)=O)C(N)=O [VIP]
[1]
  myocardial fibrosis index, treated rats compared to the control groups: significantly lower
[2]
  ionotropic effect in atria and ventricles: direct positive ionotropic effect
[3]
  myocardial content of VIP / uptake of exogenous VIP: clear association between the degree of fibrosis and uptake of exogenous VIP
[4]
  uptake of VIP by the heart from the plasma (difference between mean myocardial VIP concentrations after VIP or control infusion): As fibrosis worsens the amount of VIP taken up by the heart increases; also recorded: more avid with increasing degrees of fibrosis; also recorded: the higher the level of fibrosis, the greater the uptake of VIP by the heart; also recorded: found to increase as the degree of fibrosis increased
[5]
  regression of existing myocardial fibrosis: regression of myocardial fibrosis in the three models
[6]
  myocardial fibrosis index, treated rats compared to the control groups: significantly lower
Isolated rat heart
  myocardial function (left ventricular functions, coronary flow, tissue injury): significant improvement of myocardial function
